A short description of data set [1]: PAMPA permeability. The format is in vitro ADME. To be noted: PAMPA.
Data set [2] in a line: Microsomal stability (rat). The format is in vitro ADME. To be noted: rat microsomes.
Data set [3] is described as follows: Solubility at pH 7.4. The class given is physicochemical.
The subject of data set [4] is Asexual parasites of P. falciparum strain 3D7. The data set can be described thus: In vitro drug activity on asexual parasites (SYBR Green assay). The format is cell-based, Plasmodium falciparum. How it is done:
Cell culture. Asexual parasites of P. falciparum strain 3D7 were cultured as described previously [Trager W, et al., Journal of Parasitology 2005, 91: 484-486], Stage III-V gametocytes were selected and enriched with 3-day treatment with 50 mM N-acetylglucosamine (NAG) and the following Percoll density gradient centrifugation after gametocyte production [Tanaka T Q, et al., Molecular and Biochemical Parasitology, 2011, 111: 160-163], Gametocytes of HB3 and Dd2 strains were produced and then set up for assay in a similar process. HepG2 cells (ATCC, cat. no. 77400) were cultured in 175-cm^2 tissue culture flasks with 30 ml growth medium at 37° C. in a 5% CO2 humidified atmosphere. Growth medium was made with Dulbecco's Modified Eagle Medium with 10% fetal bovine serum (FBS). Growth medium was replaced every other day and cells were passed at 75% confluence.
Asexual parasites of P. falciparum strain 3D7 were cultured as described previously (Trager, W. et al., J. Parasitol. 2005, 91(3): 484-486). Drug activity on asexual stage parasites was tested using a SYBR Green assay as described previously (Eastman, R. T. et al., Antimicrob. Agents Chemother. 2013, 57(1): 425-435; Smilkstein, M. et al., Antimicrob. Agents Chemother. 2004, 48(5): 1803-1806). Briefly, parasites were diluted to 0.5% parasitemia in complete culture medium with 2% hematocrit and drugs diluted in DMSO (≤0.5%) and were loaded into a 96-well plate (200 μl/well). No drug and RBC alone wells were included as positive and background controls, respectively, and each testing condition was examined in duplicated. After 72 h incubation under the standard culture condition and a freeze-thaw lysis step at −80° C. and room temperature, 100 μl/well of lysis buffer containing SYBR Green I was added to the parasite culture and incubated for 30 min at room temperature. The fluorescence of each well was measured at 520 nm following excitation at 490 nm using a FLUOstar Optima™ microplate reader (BMG Labtech).

For data set [5], the target named is mTOR (Homo sapiens, UniProt P42345). Put plainly: mTOR activity (no method described). The format is biochemical.
Setting [6] is: P. falciparum 3D7 asexual parasites, 72 h, SYBR Green.

pEC50: −log10 of the molar value. Read-outs that look alike come from different tables or passages of the source. Some results are limits rather than exact numbers.

24 compounds from US11753408B2, “Compounds and method for blocking transmission of malarial parasite” (The United States of America, as represented by the …, priority 2016, dated 2023) can be followed below.

What is called pEC50 is −log10 of the EC50, conventionally taken in molar units. Read a low pEC50 as a large EC50.

Take `Cc1cc(N2CCNCC2)c(C#N)cc1-n1c(=O)ccc2cnc3ccc(-c4ccc(Cl)cc4)cc3c21` [Compound 11]: the “PAMPA Permeability (×10^6 cm/s)” value in data set [1] is recorded as 21 ×10^6 cm/s. Further, the “Microsomal Stability (rat) T1/2” value in data set [2] is reported as 9.6 min. Also, the “Sol @ pH 7.4 (ug/mL)” value in data set [3] is recorded as less than 1 ug/mL.
`CS(=O)(=O)c1ccc(-n2c(=O)ccc3cnc4ccc(-c5ccc(CN6CCCC6)cc5)cc4c32)cc1` [Compound 33]: the “PAMPA Permeability (×10^6 cm/s)” value in data set [1] was 439.2 ×10^6 cm/s. For the same compound, in data set [2], the “Microsomal Stability (rat) T1/2” value is reported as more than 30 min. In addition, in data set [4] (setting [6]), the negative-log EC50 (pEC50) is 6.54. Besides, the “Sol @ pH 7.4 (ug/mL)” value in data set [3] was determined as 61 ug/mL.
For `Cc1cc(S(C)(=O)=O)ccc1-n1c(=O)ccc2cnc3ccc(-c4ccc(Cl)cc4)cc3c21` [Compound 34] the same measures were <1 ×10^6 cm/s, 17.1 min, 7.23 and less than 1 ug/mL.
In the case of `CN(C)CCCNC(=O)c1ccc(-n2c(=O)ccc3cnc4ccc(-c5ccc(Cl)cc5)cc4c32)cc1` [Compound 258], the mTOR in data set [5] is 2.541 µM. The “Microsomal Stability (rat) T1/2” value in data set [2] was 24.4 min. In addition, the negative-log EC50 (pEC50) in data set [4] is 7.46. Further, the “Sol @ pH 7.4” value in data set [3] was 0 ug/mL.
For `O=C(NCCCN(CCO)CCO)c1ccc(-n2c(=O)ccc3cnc4ccc(-c5ccc(Cl)cc5)cc4c32)cc1` [Compound 259] the same measures were 0.6559 µM, 2.6 min, 7.62 and 0 ug/mL.
Turning to `O=C(NCCCN1CCCCC1)c1ccc(-n2c(=O)ccc3cnc4ccc(-c5ccc(Cl)cc5)cc4c32)cc1` [Compound 260], the mTOR in data set [5] was 5.024 µM. For the same compound, the “Microsomal Stability (rat) T1/2” value in data set [2] is 2.1 min. The negative-log EC50 (pEC50) in data set [4] is 7.20. Moreover, the “Sol @ pH 7.4” value in data set [3] is given as 0 ug/mL.
For `O=C(NCCCN1CCS(=O)(=O)CC1)c1ccc(-n2c(=O)ccc3cnc4ccc(-c5ccc(Cl)cc5)cc4c32)cc1` [Compound 261] the same measures were 1.871 µM, 1.7 min, 7.22 and 0 ug/mL.
For `CN1CCN(CCCNC(=O)c2ccc(-n3c(=O)ccc4cnc5ccc(-c6ccc(Cl)cc6)cc5c43)cc2)CC1` [Compound 262] the same measures were 5.399 µM, 4.3 min, 6.67 and 0 ug/mL.
For `O=C(NC1CCN(CCO)CC1)c1ccc(-n2c(=O)ccc3cnc4ccc(-c5ccc(Cl)cc5)cc4c32)cc1` [Compound 263] the same measures were 1.512 µM, more than 30 min, 7.23 and 0 ug/mL.
The compound `CN1CCN(CCNC(=O)c2ccc(-n3c(=O)ccc4cnc5ccc(-c6ccc(Cl)cc6)cc5c43)cc2)CC1` [Compound 264] gave a mTOR in data set [5] of 1.321 µM. The “Microsomal Stability (rat) T1/2” value in data set [2] was found to be 4.5 min. Moreover, the pEC50 in data set [4] is 7.25. The “Sol @ pH 7.4” value in data set [3] came out at 0 ug/mL.
For `O=C(NCCN1CCCCC1)c1ccc(-n2c(=O)ccc3cnc4ccc(-c5ccc(Cl)cc5)cc4c32)cc1` [Compound 265] the same measures were 2.064 µM, 1.9 min, 6.88 and 0 ug/mL.
The matching figures for `CCN(CC)CCCNC(=O)c1ccc(-n2c(=O)ccc3cnc4ccc(-c5ccc(Cl)cc5)cc4c32)cc1` [Compound 266]: 3.013 µM, 2.8 min, 7.23 and 0 ug/mL.
For `O=C(NCCCN1CCCC1)c1ccc(-n2c(=O)ccc3cnc4ccc(-c5ccc(F)cc5)cc4c32)cc1` [Compound 267] the same measures were 3.878 µM, 8 min, 7.24 and 0 ug/mL.
In the case of `O=C(NCCN1CCOCC1)c1ccc(-n2c(=O)ccc3cnc4ccc(-c5ccc(F)cc5)cc4c32)cc1` [Compound 268], in data set [5], the mTOR was 4.985 µM. In data set [2], the “Microsomal Stability (rat) T1/2” value is given as 2 min. In data set [4], this compound had a negative logarithm of the EC50 (pEC50) of 6.68. The “Sol @ pH 7.4” value in data set [3] amounted to 0 ug/mL.
The matching figures for `NC1(c2ccc(-c3ccc4ncc5ccc(=O)n(-c6ccc(C(=O)N7CCN(CCO)CC7)cc6)c5c4c3)cc2)CC1` [Compound 269]: 3.874 µM, more than 30 min, 6.41 and 0 ug/mL.
The matching figures for `CN(C)CCN1CCN(C(=O)c2ccc(-n3c(=O)ccc4cnc5ccc(-c6ccc(C7(N)CC7)cc6)cc5c43)cc2)CC1` [Compound 270]: 3.254 µM, more than 30 min, 6.46 and 0 ug/mL.
For `N#Cc1cc(-n2c(=O)ccc3cnc4ccc(-c5ccc(Cl)cc5)cc4c32)ccc1C(=O)N1CCOCC1` [Compound 271] the same measures were 16.14 µM, 14 min, 6.21 and 0 ug/mL.
In turn, `COc1cc(C(=O)NC2CC2)ccc1-n1c(=O)ccc2cnc3ccc(-c4ccc(Cl)c(O)c4)cc3c21` [Compound 273] registered a mTOR in data set [5] of 4.164 µM. Also, in data set [2], the “Microsomal Stability (rat) T1/2” value is more than 30 min. For the same compound, the pEC50 in data set [4] is 7.72. Also, in data set [3], the “Sol @ pH 7.4” value is listed as less than 1 ug/mL.
The compound `O=C(c1ccc(-n2c(=O)ccc3c(O)nc4ccc(-c5ccc(Cl)cc5)cc4c32)cc1)N1CCOCC1` [Compound 294] gave a mTOR in data set [5] of 4.586 µM. For the same compound, in data set [2], the “Microsomal Stability (rat) T1/2” value came out at 8.4 min. In data set [4], this compound showed a pEC50 of 5.69. Moreover, the “Sol @ pH 7.4” value in data set [3] was determined as 0 ug/mL.
For `O=C(NC1CC1)c1ccc(-n2c(=O)ccc3cnc4ccc(-c5ccc(F)cc5)cc4c32)cn1` [Compound 301] the same measures were 50 µM, more than 30 min, 6.69 and less than 1 ug/mL.
The matching figures for `O=C(c1ccc(-n2c(=O)ccc3cnc4ccc(-c5ccc(Cl)cc5)cc4c32)cc1)N1CCC(O)CC1` [Compound 302]: 1.595 µM, 12 min, 7.79 and less than 1 ug/mL.
For `O=C(NO)c1ccc(-n2c(=O)ccc3cnc4ccc(-c5ccc(Cl)cc5)cc4c32)cc1` [Compound 303] the same measures were 0.2376 µM, more than 30 min, 8.19 and 0.7 ug/mL.
Consider `CN(C)Cc1ccc(-c2ccc3ncc4ccc(=O)n(-c5ccc6c(c5)C(=O)N(C)C6=O)c4c3c2)cc1` [Compound 352], for which the “PAMPA Permeability (×10^6 cm/s)” value in data set [1] was 343.6 ×10^6 cm/s. Further, the negative logarithm of the EC50 (pEC50) in data set [4] (setting [6]) is 4.73. The “Sol @ pH 7.4 (ug/mL)” value in data set [3] is given as more than 72.0 ug/mL.
For the compound `CC(N)c1ccc(-c2ccc3ncc4ccc(=O)n(-c5ccc6c(c5)CNC6=O)c4c3c2)cc1` (stereo not drawn) [Compound 381], the “PAMPA Permeability (×10^6 cm/s)” value in data set [1] is 4 ×10^6 cm/s. Besides, the “Microsomal Stability (rat) T1/2” value in data set [2] was more than 30 min. Further, the “Sol @ pH 7.4 (ug/mL)” value in data set [3] is 44.9 ug/mL.
